Converted amounts (≈) assume the structure as drawn. “And” between values parts separate entries of the source, which are not always exact repeats. Equal entries are not always repeated. Where two headings read alike, the source gives them in different places.
Assays:
[1] = system: DSY-654 C. albican mutant cdr1/2; assay: MIC determination in Candida strain DSY-654; format: cell-based, Candida albicans; conditions: DSY-654 C. albican mutant cdr1/2
Experimental: (§1) In Vitro Antifungal Activity. MIC values for various strains were determined in accordance with the standard protocol from the National Committee of Clinical Laboratory Standards but using YEPD liquid medium instead of RPMI-1640 medium (National Committee of Clinical Laboratory Standards (Reference Method for Broth Dilution Antifungal Susceptibility Testing of Yeast, M27-A2, Approved Standard-Second Edition, Volume 22, Number 15, 1995). AmB was used as a reference. The strains were cultivated overnight in 5 mL YEPD liquid medium at 30 to 37° C. (30° C. for the strain BY4741; 37° C. for the strain DSY1764) with constant shaking. The saturated cultures were diluted to an ODB600 of 0.1 (3×10P^7 cells/mL). Using 24 wells plate, each well was prepared by adding 1% (12 μL) of DMSO solution of the tested polyene macrolide with 1% (12 μL) yeast cells solution and completed with YEPD (1.176 mL). The plates were sealed with Parafilm and then incubated for 18 to 36 hours at 30 to 37° C. (18 hours at 30° C. for the strain BY4741; 36 hours at 37° C. for the strain DSY1764). The optical density was read at 600 nm using 1.5 mL cuvettes. The MIC value was defined as the drug concentration needed to inhibit growth, less than 5% compared to a drug-free culture.
(§2) MIC values of the polyene macrolides 3, 9 and 10 (Diamine-AmB and its ester and diamide derivative, respectively) in various Candida strains including an AmB-resistant strain C. albicans (DSY1764, with the genotype erg3AΔ::hisG/erg3BΔ::hisG erg11Δ::hisG/erg11Δ::hisG-URA3-hisG) were determined.

[2] = system: DSY-1764 C. albican mutant erg3/11 (AmB-resistant strain); assay: MIC determination in AmB-resistant Candida strain DSY-1764; format: cell-based, Candida albicans
Experimental: as §1, §2

DSY-294 C. albican CI = assay: MIC determination in Candida strain DSY-294; format: cell-based, Candida albicans
Experimental: as §1, §2

CAF2-1 C. albican wt = assay: MIC determination in Candida strain CAF2-1; format: cell-based, Candida albicans
Experimental: as §1, §2

[3] = system: Saccharomyces cerevisiae wild type BY4741; assay: MIC determination in Saccharomyces cerevisiae wild type BY4741; format: cell-based; conditions: for MIC: read-out: MIC
Experimental: as §1
MIC values of various polyene macrolides of the invention in Saccharomyces cerevisiae wild type BY4741, a derivative of S288C, (with AmB as a reference) were determined as described hereinabove.
Based on the remarkable performance observed with the Diamine-AmB conjugate similar modifications of the aminosugar moiety were made on other polyene macrolides, such as for example Nystatin (1b) and Pimaricin (1c). The antifungal activity of these nystatin and pimaricin conjugates bearing two aminopropyl side chains was measured using Saccharomyces cerevisiae wild type BY4741.

[4] = system: DSY-1751 C. albican mutant erg3; assay: MIC determination in Candida strain DSY-1751; format: cell-based, Candida albicans; conditions: DSY-1751 C. albican mutant erg3
Experimental: as §1, §2

DSY-565 C. glabrata CI = assay: MIC determination in Candida strain DSY-565; format: cell-based
Experimental: as §1, §2

human erythrocytes = assay: Hemolytic assay (EH50); format: cell-based; conditions: for EH50: concentration that led to 50% hemolysis of human erythrocytes, one hour at 37° C.
Experimental: Hemolytic Assay. The hemotoxicity of the polyene macrolide derivatives of the invention was determined by measuring the toxicity towards human erythrocytes (EH50 value) using an established assay (Kinsky, S. C. et al., Biochem. Biophys. Res. Comm. 1962, 9, 503). Human blood, anticoagulated with citrate or EDTA, was centrifuged (2000×g) at 4° C. for 10 minutes. The pellets were washed three times with PBS buffer (pH 7.2 with 2 g/L glucose) and then diluted to a concentration of 4% (4×10^8 cells/mL). All experiments were done in triplo and the total volume for the hemolysis tubes was 1.4 ml. The solutions were prepared by adding 1% (14 μL) of DMSO solution of the tested compound with […] of PBS buffer and completed with 750 μL of 4% erythrocytes. After one hour incubation at 37° C., the samples were centrifuged (1500×g) at 4° C. for 5 min and the absorbance of the supernatant was measured at 560 nm. The concentration that led to 50% hemolysis (EH50) was intrapolated graphically. The value for the 100% hemolysis was obtained by the treatment with 100 μM of AmB.
The toxicity of AmB (1a) and the polyene macrolides 3, 9 and 10 towards human erythrocytes was examined using the above described hemolysis assay (Table 3).

Solubility assay = format: physicochemical; conditions: DMSO stock added to PBS buffer solution pH 7.2, precipitation point by light scattering at 600 nm
Experimental: Solubility assay. The solubility assay was performed according to Lipinski, C. A. et al Advances Drug Delivery Reviews 2001, 46, 3-26. Typically, a compound of the invention was dissolved in DMSO at a concentration of 10 μg/μl. The so obtained solution was added in […] at 1 min intervals to 2.5 ml PBS buffer solution pH 7.2. These additions correspond to solubility increments of 5 μg/ml to a top value of 65 μg/ml. A total of 14 additions were made and each time increased UV absorbance from light scattering was measured at 600 nm. The precipitation point was calculated from a bilinear curve fit to the Absorbance (y axis) versus μl of DMSO (x axis) plot.
The solubility of the polyene macrolides of the invention in water was tested following the above described protocol. Clearly, all conjugates were more soluble in water then AmB.

DSY-296 C. albican CI = assay: MIC determination in Candida strain DSY-296; format: cell-based, Candida albicans; conditions: DSY-296 C. albican CI
Experimental: as §1, §2

DSY-562 C. glabrata CI = assay: MIC determination in Candida strain DSY-562; format: cell-based
Experimental: as §1, §2

[5] = K+ efflux assay, ergosterol containing vesicles; conditions: lower concentration, 0.1 μM (FIG. 3a,c,e,g)
Experimental: (§3) FIG. 3. K^+ efflux from vesicles (LUVET100) prepared from […] (POPC) (solid line) or POPC with sterols (dotted line) for ergosterol and (broken line) for cholesterol caused by AmB (1a) (FIGS. 3a,b) and AmB diamine 3 (FIG. 3c,d), AmB diamine ester 9 (FIG. 3e,f) and AmB diamine amide 10 (FIG. 3g,h), added in DMSO to a suspension of vesicles to give final concentrations of 0.1 μM (FIG. 3a,c,e,g) and 1.0 μM (FIG. 3b,d,f,h).
K+ efflux assay. The K^+ efflux measurements were made following a previously described procedure (Zumbuehl, A. et al., Angew. Chem. Int. Ed. 2004, 43, 5181-5185; Zumbuehl, A. et al., Org. Lett. 2004, 6, 3683-3686). The appropriate liposome suspensions were prepared using POPC, cholesterol and ergosterol. Then the liposomes were sized by extrusion through two 400 nm, 200 nm, and finally 100 nm pore size membrane. The resultant “100 nm” unilamellar liposomes were dialyzed against 600 mL of 150 mM NaCl, 5 mM HEPES (pH 7.4) buffer. After, the suspension was diluted with 150 mM NaCl, 5 mM HEPES (pH 7.4) buffer to 1 mM overall lipid concentration (phospholipids+sterols). For each efflux measurement 10 mL of this liposome suspension was placed in a small beaker. Potentiometric measurements were performed with a 16-channel electrode monitor in magnetically stirred solutions at ambient temperature. The reference electrode was a Metrohm double junction Ag/AgCl reference electrode with 3 M KCl as reference electrolyte and 1 M LiOAc as bridge electrolyte. […] The resulting reading (taken after 0.5 h) was used to quantify the 100% K+-release.
As described hereinbefore differential interaction between ergosterol found in fungal membranes and cholesterol in mammalian cells is considered the basis for the selectivity of AmB (1a) as an antifungal agent. The preferential stabilization of ion channel formation in the membrane by ergosterol ultimately results in electrolyte leakage which can be conveniently measured by K^+ efflux from sterol containing vesicles. […]

[6] = K+ efflux assay, cholesterol containing vesicles; conditions: lower concentration, 0.1 μM (FIG. 3a,c,e,g)
Experimental: as §3
K+ efflux assay. The K^+ efflux measurements were made following a previously described procedure (Zumbuehl, A. et al., Angew. Chem. Int. Ed. 2004, 43, 5181-5185; Zumbuehl, A. et al., Org. Lett. 2004, 6, 3683-3686). The appropriate liposome suspensions were prepared using POPC, cholesterol and ergosterol. Then the liposomes were sized by extrusion through two 400 nm, 200 nm, and finally 100 nm pore size membrane. The resultant “100 nm” unilamellar liposomes were dialyzed against 600 mL of 150 mM NaCl, 5 mM HEPES (pH 7.4) buffer. After, the suspension was diluted with 150 mM NaCl, 5 mM HEPES (pH 7.4) buffer to 1 mM overall lipid concentration (phospholipids+sterols). For each efflux measurement 10 mL of this liposome suspension was placed in a small beaker. Potentiometric measurements were performed with a 16-channel electrode monitor in magnetically stirred solutions at ambient temperature. The reference electrode was a Metrohm double junction Ag/AgCl reference electrode with 3 M KCl as reference electrolyte and 1 M LiOAc as bridge electrolyte. After recording the amphotericin-induced potassium efflux, liposomes were lysed by adding sodium cholate (172 mg). The resulting reading (taken after 0.5 h) was used to quantify the 100% K+-release.
As described hereinbefore differential interaction between ergosterol found in fungal membranes and cholesterol in mammalian cells is considered the basis for the selectivity of AmB (1a) as an antifungal agent. The preferential stabilization of ion channel formation in the membrane by ergosterol ultimately results in electrolyte leakage which can be conveniently measured by K^+ efflux from sterol containing vesicles. To assess the interaction of the polyene macrolide derivatives of the invention with sterols, derivatives 3, 9 and 10 were examined in their ability to lead to K^+ efflux from large unilamellar vesicles (LUV) prepared from POPC (1-palmitoyl-2-oleoyl-sn-glycero-3-phosphocholine) admixed with sterols, mimicking conditions in natural biomembranes (FIG. 3). At high concentration (FIG. 3b,d,f,h), all compounds rapidly induce complete K^+ efflux from vesicles containing ergosterol (dotted line). […] This differentiation between ergosterol and cholesterol is consistent with the observation of reduced hemotoxicity of 3, 9 and 10.

[7] = Saccharomyces cerevisiae wild type BY4741, YEPD liquid medium, 18 hours at 30° C.

SMILES: C[C@@H]1[C@H](O)[C@@H](C)/C=C/C=C/C=C/C=C/C=C/C=C/C=C/[C@H](O[C@@H]2O[C@H](C)[C@@H](O)[C@H](N)[C@@H]2O)C[C@@H]2O[C@](O)(C[C@@H](O)C[C@@H](O)[C@H](O)CC[C@@H](O)C[C@@H](O)CC(=O)O[C@H]1C)C[C@H](O)[C@H]2C(=O)O [AmB, Amphotericin B, reference compound]
- MIC [1]: 0.50 µM (≈ 0.462 µg/mL)
- MIC ([2]; DSY-1764 C. albican mutant erg3/11, AmB-resistant, 36 hours at 37° C.): 50 µM (≈ 46.2 µg/mL)
- MIC (DSY-294 C. albican CI): 0.40 µM (≈ 0.37 µg/mL)
- MIC (CAF2-1 C. albican wt): 0.30 µM (≈ 0.277 µg/mL)
- MIC [3, 7]: 0.3 µM (≈ 0.277 µg/mL)
- MIC ([3]; Table 3, strain not given, values as in Table 1 (S. cerevisiae BY4741)): 0.30 µM (≈ 0.277 µg/mL)
- MIC [4]: 0.30 µM (≈ 0.277 µg/mL)
- MIC (DSY-565 C. glabrata CI; DSY-565 C. glabrata CI): 0.50 µM (≈ 0.462 µg/mL)
- EH50 (human erythrocytes): 4.0 µM
- Solubility in water (Solubility assay): 10 µg/mL (≈ 10.8 µM)
- MIC (DSY-296 C. albican CI): 0.40 µM (≈ 0.37 µg/mL)
- MIC (DSY-562 C. glabrata CI): 0.50 µM (≈ 0.462 µg/mL)

SMILES: C[C@@H]1[C@H](O)[C@@H](C)/C=C/C=C/C=C/C=C/C=C/C=C/C=C/[C@H](O[C@@H]2O[C@H](C)[C@@H](O)[C@H](N(CCCN)CCCN)[C@@H]2O)C[C@@H]2O[C@](O)(C[C@@H](O)C[C@@H](O)[C@H](O)CC[C@@H](O)C[C@@H](O)CC(=O)O[C@H]1C)C[C@H](O)[C@H]2C(=O)O [compound 3, N,N-Di-(3-aminopropyl)-AmB]
- MIC ([2]; Candida albicans, 36 h): 1 µM (≈ 1.04 µg/mL)
- K+ efflux with ergosterol containing vesicles [5]: observed exclusively with the ergosterol containing vesicles
- MIC (DSY-294 C. albican CI; Candida albicans): 0.2 µM (≈ 0.208 µg/mL)
- MIC (CAF2-1 C. albican wt; Candida albicans): 0.1 µM (≈ 0.104 µg/mL)
- K+ efflux with cholesterol containing vesicles [6]: indistinguishable from background
- MIC [3, 7]: 0.02 µM and 0.020 µM
- times more active than AmB (MIC) ([3]; Saccharomyces cerevisiae wild type BY4741, relative to AmB): 15 times
- MIC ([3]; Saccharomyces cerevisiae, Table 3, strain not given, values as in Table 1 (S. cerevisiae BY4741)): 0.02 µM (≈ 0.0208 µg/mL)
- MIC (DSY-565 C. glabrata CI; Nakaseomyces glabratus): 0.2 µM (≈ 0.208 µg/mL)
- EH50 (human erythrocytes): 10 µM
- times less toxic than AmB (EH50) (human erythrocytes; human erythrocytes, relative to AmB (1a)): 2.5 times
- solubility (Solubility assay; PBS buffer, pH 7.2, aqueous buffer, kinetic from dmso stock, read-out: Solubility in water): 12 µg/mL (≈ 11.6 µM)
- MIC (DSY-562 C. glabrata CI; Nakaseomyces glabratus): 0.2 µM (≈ 0.208 µg/mL)
